# Test results taken from patent US11786481B2, “Formulation and process for modulating wound healing” (BioMendics, LLC, priority 2015, dated 2023).
# Experiments:
# [1] = tested on: full thickness excision wounds; test: In vivo evaluation for wound healing: full thickness excision wounds on the dorsum of mice
# Excerpt: Example 10: In Vivo Evaluation of the LCB's for Wound Healing: Twenty, 5-6 week old Balbc/J (stock #000651) male mice were transferred to Jackson Labs in vivo research laboratory in Sacramento, Calif. The mice were ear notched for identification and housed in individually and positively ventilated polycarbonate cages with HEPA filtered air. Bed-o-cob corn cob bedding was used and cages were changed every two weeks. The animal room is lighted entirely with artificial fluorescent lighting, with a controlled 12 h light/dark cycle. The normal temperature and relative humidity ranges in the animal rooms are 22 t 4° C. and 50 t 15%, respectively. The animal rooms were set to have 15 air exchanges per hour. Filtered tap water, acidified to a pH of 2.8 to 3.1, and rodent chow was provided ad libitum. Following a 5-7 days acclimation, mice were randomized by body weight into 2 cohorts of 10 mice each. On study day 0, mice were anesthetized and two full thickness excision wounds (˜6 mm) were made on the dorsum (backs) of mice. One of the wounds was covered using a semi-occlusive polyurethane dressing (Tegaderm™). Dressings covered the wounds for 5 consecutive (5) days from the day of wounding (d 0). The doses of 4-hydroxy-4′-methoxytolan were based on those that promoted lesion healing in mice in previous herpes virus studies. Wound measurements were made on day 5, 7, 9 and 11. Digital images of wounds were taken of each mouse. Test agents were a viscous paste and wounds were surrounded with a saddle glued in place to eliminate cross contamination and wound closure due to contraction. Therefore, changes in wound area are due to re-epithelization. During the five days all wounds are covered with glycerin (control) or glycerin and test agent. At day 5, test agents were removed and changes in wound area were measured (as area/area %) in an effort to gauge the persistence of the compounds in the wound site. By day 5, glycerin produced 26.1% wound closure, whereas 4-hydroxy-4′-methoxytolan (2.5%) closed produced 92.8% wound closure and 5% 4-hydroxy-4′-methoxytolan produced 91.4% wound closure. Prior to statistical analysis a test for Normality was run and a Z-score computed to confirm a normally distributed area for each wound on day 1 for all mice across groups, r^2=0.989. Statistics are computed based One-Way ANOVA's comparing changes in wound area on day 5. All mice tolerated the treatments and all weekly clinical observations report bright, alert, responsive, and hydrated mice.
# [2] = tested on: skin (keratinocyte layer, dermis); test: H&E staining of excised skin samples; format: in vivo; settings: 5% (w/v)
# Excerpt: Example 11: Excised skin samples treated with a control or with 5% (w/v) 4-hydroxy-4′-methoxytolan.
# [3] = 2.5% (w/v) topical in glycerin, day 0
# [4] = 2.5% (w/v) topical in glycerin, day 5
# [5] = 2.5% (w/v) topical in glycerin, day 7
# [6] = 2.5% (w/v) topical in glycerin, day 9
# [7] = 2.5% (w/v) topical in glycerin, day 11
# [8] = 5% (w/v) topical in glycerin, day 0
# [9] = 5% (w/v) topical in glycerin, day 5
# [10] = 5% (w/v) topical in glycerin, day 7
# [11] = 5% (w/v) topical in glycerin, day 9
# [12] = 5% (w/v) topical in glycerin, day 11
smiles,measurement,setting,value
COc1ccc(C#Cc2ccc(O)cc2)cc1 [4-hydroxy-4′-methoxytolan],Average Area,[1]; [3],2.07 cm^2
same,Wound Area (%) Closed,[1]; [3],0%
same,Average Area,[1]; [4],0.15 cm^2
same,Wound Area (%) Closed,[1]; [4],92.8%
same,Average Area,[1]; [5],0.04 cm^2
same,Wound Area (%) Closed,[1]; [5],100%
same,Average Area,[1]; [6],0.00 cm^2
same,Wound Area (%) Closed,[1]; [6],100.0%
same,Average Area,[1]; [7],0.00 cm^2
same,Wound Area (%) Closed,[1]; [7],100.0%
same,Average Area,[1]; [8],1.98 cm^2
same,Wound Area (%) Closed,[1]; [8],0%
same,Average Area,[1]; [9],0.17 cm^2
same,Wound Area (%) Closed,[1]; [9],91.4%
same,Average Area,[1]; [10],0.08 cm^2
same,Wound Area (%) Closed,[1]; [10],100%
same,Average Area,[1]; [11],0.00 cm^2
same,Wound Area (%) Closed,[1]; [11],100.0%
same,Average Area,[1]; [12],0.00 cm^2
same,Wound Area (%) Closed,[1]; [12],100.0%
same,"Tolerability of treatment, weekly clinical observations","[1]; topical 2.5% and 5%, Balbc/J male mice",tolerated
same,Keratinocyte proliferation,[2]; H&E staining,extensive keratinocyte proliferation
same,Keratinocyte cell layers,[2]; control 1-2 cells thick,7-8 cells thick
